# Data as given in patent US20240156723A1, “DEPOT COMPOSITIONS FOR VESICULAR MONOAMINE TRANSPORTER 2 (VMAT2) INHBITORS” (Foresee Pharmaceuticals Co., Ltd., priority 2022, published 2024).
# Experiments:
# dopamine D2 = dopamine D2 (Homo sapiens, UniProt P14416); settings: dopamine D2 receptor; read-out: off-target binding affinity to dopamine D2; cited from earlier work
# [1] = target: serotonin 5-HT7 receptors (Homo sapiens, UniProt P34969); settings: serotonin 5-HT7 receptor; read-out: off-target binding affinity to serotonin 5-HT7; cited from earlier work
# [2] = particle size distribution by laser diffraction (Mastersizer 3000); assay type: physicochemical; settings: re-dispersed in 0.2% Tween 20 deionized water
# Protocol: (§1) Briefly, 10 mg/mL (+)-TBZ or (±)-d6-TBZ recrystallized crystal was re-dispersed in 0.2% Tween 20 deionized water with a rigorous vortex. The microscopy was conducted using the optical microscope Leica DMi8, with 100-fold magnification. The PSD was measured using laser diffraction method, with Mastersizer 3000 (Malvern, UK). Before particle sizing, the 10 mg/mL (+)-TBZ crystal was re-dispersed in 0.2% Tween 20 deionized water and sonicated for ˜10 sec.
# as §1, with “(+)-TBZ” for “(+)-TBZ or (±)-d6-TBZ”
# Four grams of raw (+)-TBZ crystals were jet milled in a 20 mm milling chamber at room temperature (Micromacinazione, Switzerland). Briefly, the jet mill was connected to high pressure nitrogen for providing the pneumatic forces. The grinding pressure and feeding pressure are set on 2.5 bar and 5 bar, respectively. The feeding rate of raw (+)-TBZ crystal was 1.6 g/m in. The fine (+)-TBZ powder was collected by the cyclone and recovered in a vial. The yield was ˜80%. The PSD was characterized using laser diffraction method, with Mastersizer 3000 (Malvern, UK). Before particle sizing, the 10 mg/mL (+)-TBZ crystal was re-dispersed in 0.2% Tween 20 deionized water and sonicated for ˜10 sec. […]
# Four grams of raw cholesterol crystals (Nippon fine chemical, Japan) was jet milled in a 20 mm milling chamber at room temperature (Micromacinazione, Switzerland). The jet mill was connected to high pressure nitrogen for providing the pneumatic forces. The grinding pressure and feeding pressure are set on 2.5 bar and 5 bar, respectively. The feeding rate of raw cholesterol crystal was 1.6 g/m in. The fine CSTR powder was collected by the cyclone and recovered in a vial. The yield was ˜80%. The PSD was characterized using laser diffraction method, with Mastersizer 3000 (Malvern, UK). Before particle sizing, the 10 mg/mL CSTR crystal was re-dispersed in 0.2% Tween 20 deionized water and sonicated for ˜10 sec.
# The spray drying was conducted with Mini Spray Dryer B-290, (Buchi, Switzerland). First, 10 grams of raw cholesterol crystal was dissolved in 300 mL isopropanol (IPA) with 35-40° C. heating to obtain a clear solution. The spray drying was conducted at a flow rate of 12.5 ml/min and completed in 2 hours. The fine CSTR particles were collected by the cyclone and recovered in a vial. The yield was about 80%. […] Briefly, 10 mg/mL SPD CSTR was re-dispersed in 0.2% Tween 20 deionized water with a rigorous vortex. The microscopy was conducted using the optical microscope Leica DMi8, with 100-fold magnification. The PSD was characterized using laser diffraction method, with Mastersizer 3000 (Malvern, UK) and the results are shown in Table 12. Before particle sizing, the 10 mg/mL SPD CSTR was re-dispersed in 0.2% Tween 20 deionized water and sonicated for ˜10 sec. […]
# 4 grams of raw (+)-α-DHTBZ crystals (Wuxi Pharma, China) were jet milled in a 20 mm milling chamber at room temperature (Micromacinazione, Switzerland). Briefly, the jet mill was connected to high pressure nitrogen for providing pneumatic forces, with grinding pressure and feeding pressure set at 4 and 5 bars, respectively. The feeding rate of raw (+)-α-DHTBZ crystals was 1.6 g/m in. Fine milled (+)-α-DHTBZ crystals were collected by the cyclone and recovered in a vial. The yield was ˜80%. The PSD of jet-milled (+)-α-DHTBZ was characterized using laser diffraction method, with Mastersizer 3000 (Malvern, UK). Before particle sizing, the 10 mg jet milled (+)-α-DHTBZ was re-dispersed in 1 mL of 0.2% Tween-20 deionized water and sonicated for ˜10 sec.
# [3] = cited from earlier work
# solubility in heptane = assay type: physicochemical; settings: room temperature
# [4] = listed as 3 g rex (+)-TBZ-1 iii
# dopamine D2, sequence (P14416 whole entry): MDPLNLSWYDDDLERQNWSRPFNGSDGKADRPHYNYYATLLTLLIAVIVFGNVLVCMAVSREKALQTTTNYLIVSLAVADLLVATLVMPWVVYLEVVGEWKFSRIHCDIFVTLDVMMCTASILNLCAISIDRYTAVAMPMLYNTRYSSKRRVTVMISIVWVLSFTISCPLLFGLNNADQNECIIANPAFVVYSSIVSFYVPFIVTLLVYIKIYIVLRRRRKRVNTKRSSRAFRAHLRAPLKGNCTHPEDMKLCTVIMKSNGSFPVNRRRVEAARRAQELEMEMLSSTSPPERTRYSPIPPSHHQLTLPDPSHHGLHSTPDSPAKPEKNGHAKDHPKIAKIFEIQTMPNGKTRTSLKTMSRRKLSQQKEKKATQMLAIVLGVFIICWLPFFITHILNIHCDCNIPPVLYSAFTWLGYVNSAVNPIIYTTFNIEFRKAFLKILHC
# serotonin 5-HT7 receptors, sequence (P34969 whole entry): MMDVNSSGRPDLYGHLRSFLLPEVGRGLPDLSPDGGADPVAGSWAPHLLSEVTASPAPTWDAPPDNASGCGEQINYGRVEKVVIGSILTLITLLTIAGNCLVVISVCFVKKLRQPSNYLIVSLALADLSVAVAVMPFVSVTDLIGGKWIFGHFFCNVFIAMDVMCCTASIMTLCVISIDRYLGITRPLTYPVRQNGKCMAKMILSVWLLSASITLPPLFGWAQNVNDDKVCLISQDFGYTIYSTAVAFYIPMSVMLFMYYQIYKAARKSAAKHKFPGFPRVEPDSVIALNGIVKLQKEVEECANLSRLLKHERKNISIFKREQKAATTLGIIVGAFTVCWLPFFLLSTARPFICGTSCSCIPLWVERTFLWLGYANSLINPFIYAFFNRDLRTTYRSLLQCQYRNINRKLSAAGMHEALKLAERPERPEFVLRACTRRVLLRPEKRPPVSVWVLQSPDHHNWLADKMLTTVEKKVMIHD
compound,measurement,setting,value
[−]-β-dihydrotetrabenazine [(−)-(β)-DHTBZ],Ki,dopamine D2,0.053 µM
same,Ki,[1],0.0059 µM
"COc1cc2c(cc1OC)C1CC(=O)C(CC(C)C)CN1CC2 (racemic) [TBZ, 1,3,4,6,7,11b-hexahydro-9,10-dimethoxy-3-(2-methoxylrpopryl)-2H-benzo(a)quinoline-2-one, reference compound]",D10 (μm),[2],4.2 μm
same,D50 (μm),[2],9.2 μm
same,D90 (μm),[2],20.1 μm
same,oral bioavailability,[3],17%
"(RR, SS)-1,3,4,6,7,11b-hexahydro-9, 10-di(methoxy-d3)-3-(2-methylpropyl) 2H-benzo[a]quinolizin-2-one [(±)-d6-TBZ, reference compound]",D10 (μm),[2],12.3 μm
same,D50 (μm),[2],25.6 μm
same,D90 (μm),[2],45.4 μm
"COc1cc2c(cc1OC)[C@H]1C[C@@H](OC(=O)[C@@H](N)C(C)C)[C@H](CC(C)C)CN1CC2 [VBZ, L-Valine, (2R,3R,11bR)-1,3,4,6,7,11b-hexahydro-9,10-dimethoxy-3-(2-methylpropyI)-2H-benzo[a]quinolizin-2-yl ester]",oral bioavailability,[3],~50%
CC(C)CCC[C@@H](C)[C@H]1CC[C@H]2[C@@H]3CC=C4C[C@@H](O)CC[C@]4(C)[C@H]3CC[C@]12C [cholesterol],D50 (μm),[2],27.3 μm
same,D10 (μm),[2]; listed as Jet milled CSTR,0.3 μm
same,D50 (μm),[2]; listed as Jet milled CSTR,4.6 μm
same,D90 (μm),[2]; listed as Jet milled CSTR,12 μm
same,D10 (μm),[2]; listed as Raw CSTR,14.1 μm
same,D50 (μm),[2]; listed as Raw CSTR,27.3 μm
same,D90 (μm),[2]; listed as Raw CSTR,48 μm
same,D10 (μm),[2]; listed as Spray dried CSTR,0.2 μm
same,D50 (μm),[2]; listed as Spray dried CSTR,2.0 μm
same,D90 (μm),[2]; listed as Spray dried CSTR,5.0 μm
same,solubility in heptane,solubility in heptane,> 10 % by weight
"COc1cc2c(cc1OC)[C@H]1C[C@@H](O)[C@H](CC(C)C)CN1CC2 [(−)-(α)-DHTBZ, [−]-α-dihydrotetrabenazine]",Ki,dopamine D2,0.18 µM
same,Ki,[1],0.071 µM
"COc1cc2c(cc1OC)[C@H]1CC(=O)[C@H](CC(C)C)CN1CC2 [(+)-TBZ, (3R,11bR)-tetrabenazine]",D10 (μm),[2]; listed as 3 g rex (+)-TBZ-1 i,17.3 μm
same,D50 (μm),[2]; listed as 3 g rex (+)-TBZ-1 i,38.5 μm
same,D90 (μm),[2]; listed as 3 g rex (+)-TBZ-1 i,75.0 μm
same,D10 (μm),[2]; listed as 3 g rex (+)-TBZ-1 ii,22.0 μm
same,D50 (μm),[2]; listed as 3 g rex (+)-TBZ-1 ii,45.9 μm
same,D90 (μm),[2]; listed as 3 g rex (+)-TBZ-1 ii,85.7 μm
same,D10 (μm),[2]; [4],16.6 μm
same,D50 (μm),[2]; [4],33.7 μm
same,D90 (μm),[2]; [4],60.7 μm
same,D10 (μm),[2]; listed as 12 g rex (+)-TBZ i,15.9 μm
same,D50 (μm),[2]; listed as 12 g rex (+)-TBZ i,34.9 μm
same,D90 (μm),[2]; listed as 12 g rex (+)-TBZ i,65.8 μm
same,D10 (μm),[2]; listed as 12 g rex (+)-TBZ ii,17.7 μm
same,D50 (μm),[2]; listed as 12 g rex (+)-TBZ ii,40.8 μm
same,D90 (μm),[2]; listed as 12 g rex (+)-TBZ ii,80.4 μm
same,D10 (μm),[2]; listed as 12 g rex (+)-TBZ iii,16.7 μm
same,D50 (μm),[2]; listed as 12 g rex (+)-TBZ iii,38 μm
same,D90 (μm),[2]; listed as 12 g rex (+)-TBZ iii,76 μm
same,D10 (μm),[2]; listed as Jet milled (+)-TBZ,2.5 μm
same,D50 (μm),[2]; listed as Jet milled (+)-TBZ,5.2 μm
same,D90 (μm),[2]; listed as Jet milled (+)-TBZ,11.8 μm
same,D10 (μm),[2]; listed as Raw (+)-TBZ,14.3 μm
same,D50 (μm),[2]; listed as Raw (+)-TBZ,66.5 μm
same,D90 (μm),[2]; listed as Raw (+)-TBZ,184 μm
same,solubility in heptane,solubility in heptane,< 0.4 % by weight
"COc1cc2c(cc1OC)C1CC(O)C(CC(C)C)CN1CC2 (single isomer, unassigned; (+)) [(+)-(α)-DHTBZ, [+]-α-dihydrotetrabenazine]",D10 (μm),[2],5 μm
same,D50 (μm),[2],13 μm
same,D90 (μm),[2],40 μm
